We go through nine molecules from ChEMBL document CHEMBL2434849, “The development of bis(hydroxymethyl)pyrrole analogs as bifunctional DNA cross-linking agents and their chemotherapeutic potential” (Eur J Med Chem, 2013).

SMILES strings stand for the structures.

Experiment [1] concerns MCF7. The experiment can be described thus: Cytotoxicity against human MCF7 cells. It is filed as functional, cell-based.
Experiment [2] deals with PC-3. Put plainly: Cytotoxicity against human PC3 cells. Format: functional, cell-based.
A short description of experiment [3]: Cytotoxicity against human H460 cells. Format: functional, cell-based. The note with it: NCI-H460.
Experiment [4] has as its system HL-60. Put plainly: Cytotoxicity against human HL60 cells. It is filed as functional, cell-based.
The test system of experiment [5] is B16. Put plainly: Antitumor activity against mouse B16 cells graft model at 12.5 mg/kg, ip qd for 9 days. It is filed as functional. The note with it: route intraperitoneal.
Experiment [6] has as its system P388. Put plainly: Antitumor activity against mouse P388 cells graft model at 7.5 mg/kg, ip qd for 5 days. The note with it: route intraperitoneal. Format: functional.
In experiment [7] the test system is P388. The experiment can be described thus: Antitumor activity against mouse P388 cells assessed as increase in life span of host. Format: functional.

Take `CCNC(=O)OCc1c(COC(=O)NCC)c(-c2ccc(OC)cc2)n2c1Cc1ccccc1-2`: the results for the IC50 in experiment [1], in experiment [2] and in experiment [3] were 25.9 µM, 30.2 µM and 13.2 µM, respectively. On the same counts, the results for `COc1ccc(-c2c(COC(=O)NC(C)C)c(COC(=O)NC(C)C)c3n2-c2ccccc2C3)cc1` are 34.2 µM, 23.2 µM and 20.3 µM.

In the case of `CC(C)NC(=O)OCc1c(COC(=O)NC(C)C)c(-c2ccc(Cl)c(Cl)c2)n2c1CCC2`, the IC50 in experiment [4] was determined as 1.5 µM. As for `COc1ccc2c(c1)CCn1c(C)c(COC(=O)NC(C)C)c(COC(=O)NC(C)C)c1-2`, the T/C in experiment [5] worked out at 180%; in experiment [6] it was 232%. `CC(C)NC(=O)OCc1c(COC(=O)NC(C)C)c(-c2ccc(F)cc2)n2c1SCC2`: the IC50 in experiment [4] came to 1.6 µM. This counts as single-digit micromolar. Regarding `Cc1c(COC(=O)NC(C)C)c(COC(=O)NC(C)C)c2n1CS(=O)(=O)C2`, in experiment [7], the Activity is recorded as 118%.

In turn, `CC(C)NC(=O)OCc1c(COC(=O)NC(C)C)c(-c2ccc(Cl)cc2)n2c1SCC2` registered an IC50 in experiment [4] of 0.85 µM. Still for that read-out and setting: as for `CC(C)NC(=O)OCc1c(COC(=O)NC(C)C)c(-c2ccccc2)n2c1SCC2`, the figure is 1.5 µM.

Take `CNC(=O)OCc1c(COC(=O)NC)c(-c2ccc(OC)cc2)n2c1Cc1ccccc1-2`: the IC50 in experiment [1] worked out at 20 µM; in experiment [3] it was 82.1 µM.
